{"source": "patent CN113354616A", "about": "“二芳基-1,2,4-三唑类化合物及其制法和药物用途” (Institute of Materia Medica of CAMS and PUMC, priority 2020, dated 2021)", "key": {"[1]": {"test_system": "hyperuricemic mice (高尿酸血症小鼠)", "assay": "实验例2: effect of TAZ-3-16 on lowering blood uric acid in hyperuricemic (HUA) model mice (hypoxanthine plus potassium oxonate, repeated stimulation)", "type": "in vivo", "conditions": "HUA model ICR mice, intragastric, n=10, compared with model control"}, "[2]": {"test_system": "acute hyperuricemic mice (急性高尿酸血症小鼠)", "assay": "实验例3: effect of TAZ-3-19 on lowering blood uric acid in acute hyperuricemia model mice (hypoxanthine plus potassium oxonate)", "type": "in vivo", "conditions": "acute hyperuricemia ICR mice, intragastric, n=10, compared with model control"}}, "data": [{"smiles": "Clc1cc(-c2nc(-c3ccncc3)n[nH]2)cc(Cl)c1OCCCN1CCCCC1", "note": "[TAZ-3-16]", "values": [{"measurement": "blood uric acid level", "setting": "[1]; 0.5 mg/kg once daily for 2 days", "value": "明显降低"}]}, {"smiles": "CN1CCN(CCCOc2c(Cl)cc(-c3nc(-c4ccncc4)n[nH]3)cc2Cl)CC1", "note": "[TAZ-3-19]", "values": [{"measurement": "decrease of peak blood uric acid", "setting": "[2]; 0.625 mg/kg", "value": 5.7, "unit": "%"}, {"measurement": "decrease of peak blood uric acid", "setting": "[2]; 1.25 mg/kg", "value": 34.2, "unit": "%"}, {"measurement": "decrease of peak blood uric acid", "setting": "[2]; 2.5 mg/kg", "value": 68.0, "unit": "%"}]}, {"smiles": "Cc1nc(-c2ccc(OCC(C)C)c(C#N)c2)sc1C(=O)O", "note": "[非布索坦, reference compound]", "values": [{"measurement": "blood uric acid level", "setting": "[1]; 1 mg/kg once daily for 2 days", "value": "明显降低"}]}]}
